# Measurements: ChEMBL document CHEMBL1133317, “The solid phase synthesis of tetrahydroisoquinolines having cdc25B inhibitory activity” (Bioorg Med Chem Lett, 2000)
# Target: T1, M-phase inducer phosphatase 2 (Homo sapiens, UniProt P30305)
# T1 sequence (P30305 whole entry): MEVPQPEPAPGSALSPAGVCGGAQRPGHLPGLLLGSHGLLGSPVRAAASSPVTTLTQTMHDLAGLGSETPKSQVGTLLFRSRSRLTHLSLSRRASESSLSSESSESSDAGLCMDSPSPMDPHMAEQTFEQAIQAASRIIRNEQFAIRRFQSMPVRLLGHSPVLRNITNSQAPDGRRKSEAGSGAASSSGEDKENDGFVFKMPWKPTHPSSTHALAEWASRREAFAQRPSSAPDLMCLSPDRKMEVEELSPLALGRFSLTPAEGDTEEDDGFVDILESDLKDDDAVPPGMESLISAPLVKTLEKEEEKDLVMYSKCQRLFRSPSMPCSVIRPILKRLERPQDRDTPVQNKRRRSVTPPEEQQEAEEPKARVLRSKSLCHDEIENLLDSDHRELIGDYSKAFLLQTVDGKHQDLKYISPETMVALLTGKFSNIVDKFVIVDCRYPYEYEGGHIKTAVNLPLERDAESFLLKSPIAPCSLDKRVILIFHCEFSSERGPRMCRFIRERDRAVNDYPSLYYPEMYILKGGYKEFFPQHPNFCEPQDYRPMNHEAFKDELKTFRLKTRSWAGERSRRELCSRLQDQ
# Experiment: Compound was measured for its inhibitory activity against Cell division cycle 25B
row,IC50 [µM],SMILES
1,30,O=C(O)[C@@H]1Cc2cc(I)c(OCc3cccc(C(F)(F)F)c3)c(I)c2CN1C(=O)c1cccnc1Cl
2,36,O=C(O)[C@@H]1Cc2cc(I)c(OCc3cccc(C(F)(F)F)c3)c(I)c2CN1C(=O)/C=C/c1ccccc1C(F)(F)F
3,45,O=C(O)[C@@H]1Cc2cc(I)c(OCc3c(Cl)cccc3Cl)c(I)c2CN1C(=O)c1cccnc1Cl
4,90,O=C(COc1c(I)cc2c(c1I)CN(C(=O)/C=C/c1ccc(Br)cc1)[C@H](C(=O)O)C2)OCc1ccccc1
5,100,O=C(O)[C@@H]1Cc2cc(I)c(OCCCCl)c(I)c2CN1C(=O)/C(F)=C/c1ccccc1
6,70,O=C(O)[C@@H]1Cc2cc(I)c(OCCCCl)c(I)c2CN1C(=O)/C=C/c1cccc(Br)c1
7,32,O=C(O)[C@@H]1Cc2cc(I)c(OCc3ccc(C(F)(F)F)cc3)c(I)c2CN1C(=O)/C=C/c1ccc2c(c1)OCO2
8,55,O=C(O)[C@@H]1Cc2cc(I)c(OCc3ccc(C(F)(F)F)cc3)c(I)c2CN1C(=O)/C=C/c1ccccc1F
9,50,O=C(O)[C@@H]1Cc2cc(I)c(OCc3cccc(C(F)(F)F)c3)c(I)c2CN1C(=O)/C=C/c1ccc([N+](=O)[O-])cc1
10,58,COc1cccc(COc2c(I)cc3c(c2I)CN(C(=O)/C=C/c2ccc4c(c2)OCO4)[C@H](C(=O)O)C3)c1
11,30,O=C(O)[C@@H]1Cc2cc(I)c(OCc3ccc(C(F)(F)F)cc3)c(I)c2CN1C(=O)/C=C/c1cccc(F)c1
12,80,O=C(O)[C@@H]1Cc2cc(I)c(OCc3ccccc3F)c(I)c2CN1C(=O)CCc1ccccc1
13,45,O=C(O)[C@@H]1Cc2cc(I)c(OCc3cccc(C(F)(F)F)c3)c(I)c2CN1C(=O)/C=C/c1cccc(F)c1
14,90,O=C(O)[C@@H]1Cc2cc(I)c(OCc3ccccc3F)c(I)c2CN1C(=O)c1cccnc1Cl
15,23,O=C(O)[C@@H]1Cc2cc(I)c(OCc3ccc(Cl)cc3Cl)c(I)c2CN1C(=O)/C=C/c1cc(Cl)cc(Cl)c1
16,50,O=C(O)[C@@H]1Cc2cc(I)c(OCc3cccc(C(F)(F)F)c3)c(I)c2CN1C(=O)CCc1ccccc1
17,40,C/C(=C\c1ccccc1)C(=O)N1Cc2c(cc(I)c(OCc3ccc(Cl)cc3Cl)c2I)C[C@H]1C(=O)O
18,75,O=C(O)[C@@H]1Cc2cc(I)c(OCc3ccccc3F)c(I)c2CN1C(=O)/C=C/c1ccc(Cl)c(Cl)c1
19,35,O=C(O)[C@@H]1Cc2cc(I)c(OCc3ccc(Cl)cc3Cl)c(I)c2CN1C(=O)/C=C/c1cccc(Cl)c1
20,75,COc1cccc(COc2c(I)cc3c(c2I)CN(C(=O)/C=C/c2ccc(Cl)cc2)[C@H](C(=O)O)C3)c1
21,35,O=C(O)[C@@H]1Cc2cc(I)c(OCc3ccc(Cl)cc3Cl)c(I)c2CN1C(=O)/C=C/c1ccc(Cl)cc1
22,30,Cc1ccc(/C=C/C(=O)N2Cc3c(cc(I)c(OCc4cccc(C(F)(F)F)c4)c3I)C[C@H]2C(=O)O)cc1

row,IC50 [µM],SMILES
1,23,O=C(O)[C@@H]1Cc2cc(I)c(OCc3ccc(Cl)cc3Cl)c(I)c2CN1C(=O)/C=C/c1ccc(Br)cc1
2,33,O=C(O)[C@@H]1Cc2cc(I)c(OCc3ccc(Cl)cc3Cl)c(I)c2CN1C(=O)/C=C/c1ccccc1Br
3,36,O=C(O)[C@@H]1Cc2cc(I)c(OCc3ccc(Cl)cc3Cl)c(I)c2CN1C(=O)/C(F)=C/c1ccccc1
4,52,O=C(O)[C@@H]1Cc2cc(I)c(OCCCCl)c(I)c2CN1C(=O)/C=C/c1ccc(Cl)cc1Cl
5,50,O=C(O)[C@@H]1Cc2cc(I)c(OCc3cccc(C(F)(F)F)c3)c(I)c2CN1C(=O)/C=C/c1cccc(C(F)(F)F)c1
6,20,O=C(O)[C@@H]1Cc2cc(I)c(OCc3c(Cl)cccc3Cl)c(I)c2CN1C(=O)/C=C/c1cccc(Cl)c1
7,45,O=C(O)[C@@H]1Cc2cc(I)c(OCc3c(Cl)cccc3Cl)c(I)c2CN1C(=O)/C=C/c1cccc(F)c1
8,35,O=C(O)[C@@H]1Cc2cc(I)c(OCc3cccc(C(F)(F)F)c3)c(I)c2CN1C(=O)/C=C/c1ccccc1F
9,30,O=C(O)[C@@H]1Cc2cc(I)c(OCc3ccc(Cl)cc3Cl)c(I)c2CN1C(=O)/C=C/c1ccc(Cl)c(Cl)c1
10,60,O=C(O)[C@@H]1Cc2cc(I)c(OCc3ccccc3F)c(I)c2CN1C(=O)/C=C/c1cccc(Cl)c1
11,55,O=C(O)[C@@H]1Cc2cc(I)c(OCc3c(Cl)cccc3Cl)c(I)c2CN1C(=O)/C=C/c1ccc(Cl)c(Cl)c1
12,60,O=C(O)[C@@H]1Cc2cc(I)c(OCc3ccc(Cl)cc3Cl)c(I)c2CN1C(=O)/C=C/c1ccc2c(c1)OCO2
13,57,COc1cc(/C=C/C(=O)N2Cc3c(cc(I)c(OCc4ccc(C(F)(F)F)cc4)c3I)C[C@H]2C(=O)O)cc(OC)c1OC
14,45,O=C(COc1c(I)cc2c(c1I)CN(C(=O)/C=C/c1ccccc1Br)[C@H](C(=O)O)C2)OCc1ccccc1
15,40,O=C(O)[C@@H]1Cc2cc(I)c(OCc3ccc(Cl)cc3Cl)c(I)c2CN1C(=O)/C=C/c1cccc(F)c1
16,27,O=C(O)[C@@H]1Cc2cc(I)c(OCc3ccc(C(F)(F)F)cc3)c(I)c2CN1C(=O)/C=C/c1ccccc1C(F)(F)F
17,45,O=C(O)[C@@H]1Cc2cc(I)c(OCc3ccccc3F)c(I)c2CN1C(=O)/C=C/c1cccc(C(F)(F)F)c1
18,62,COc1cccc(COc2c(I)cc3c(c2I)CN(C(=O)/C=C/c2ccc(C)cc2)[C@H](C(=O)O)C3)c1
19,15,O=C(O)[C@@H]1Cc2cc(I)c(OCc3ccc(Cl)cc3Cl)c(I)c2CN1C(=O)/C=C/c1cccc(C(F)(F)F)c1
20,33,O=C(O)[C@@H]1Cc2cc(I)c(OCCCCl)c(I)c2CN1C(=O)/C=C/c1ccccc1Br
21,35,O=C(O)[C@@H]1Cc2cc(I)c(OCc3c(Cl)cccc3Cl)c(I)c2CN1C(=O)/C=C/c1cccc(C(F)(F)F)c1
22,40,O=C(O)[C@@H]1Cc2cc(I)c(OCc3cccc(C(F)(F)F)c3)c(I)c2CN1C(=O)/C=C/c1cccc(Cl)c1

row,IC50 [µM],SMILES
1,75,O=C(O)[C@@H]1Cc2cc(I)c(OCc3ccccc3F)c(I)c2CN1C(=O)/C=C/c1cccc(F)c1
2,70,O=C(COc1c(I)cc2c(c1I)CN(C(=O)/C=C/c1ccccc1Cl)[C@H](C(=O)O)C2)OCc1ccccc1
3,30,O=C(O)[C@@H]1Cc2cc(I)c(OCc3ccc(C(F)(F)F)cc3)c(I)c2CN1C(=O)/C=C/c1ccc(Cl)cc1
4,75,O=C(O)[C@@H]1Cc2cc(I)c(OCc3cccc(C(F)(F)F)c3)c(I)c2CN1C(=O)/C=C/c1ccc(Cl)c(Cl)c1
5,45,O=C(O)[C@@H]1Cc2cc(I)c(OCc3ccc(Cl)cc3Cl)c(I)c2CN1C(=O)/C=C/c1ccc([N+](=O)[O-])cc1
6,27,Cc1ccc(/C=C/C(=O)N2Cc3c(cc(I)c(OCc4ccc(Cl)cc4Cl)c3I)C[C@H]2C(=O)O)cc1
7,66,O=C(O)[C@@H]1Cc2cc(I)c(OCc3cccc(C(F)(F)F)c3)c(I)c2CN1C(=O)/C=C/c1ccc2c(c1)OCO2
8,27,O=C(O)[C@@H]1Cc2cc(I)c(OCCCCl)c(I)c2CN1C(=O)/C=C/c1ccccc1Cl
9,15,O=C(O)[C@@H]1Cc2cc(I)c(OCc3ccc(Cl)cc3Cl)c(I)c2CN1C(=O)/C=C/c1ccccc1Cl
10,> 100,O=C(O)[C@@H]1Cc2cc(I)c(OCc3ccc(Cl)cc3Cl)c(I)c2CN1C(=O)c1cccnc1Cl
11,90,O=C(COc1c(I)cc2c(c1I)CN(C(=O)/C=C/c1cccc(Br)c1)[C@H](C(=O)O)C2)OCc1ccccc1
12,> 100,O=C(O)[C@@H]1Cc2cc(I)c(OCc3c(Cl)cccc3Cl)c(I)c2CN1C(=O)CCc1ccccc1
13,70,O=C(O)[C@@H]1Cc2cc(I)c(OCCCCl)c(I)c2CN1C(=O)/C=C/c1ccc(Br)cc1
14,35,Cc1ccc(/C=C/C(=O)N2Cc3c(cc(I)c(OCc4ccc(C(F)(F)F)cc4)c3I)C[C@H]2C(=O)O)cc1
15,59,COc1cccc(COc2c(I)cc3c(c2I)CN(C(=O)/C=C/c2ccc([N+](=O)[O-])cc2)[C@H](C(=O)O)C3)c1
16,50,O=C(O)[C@@H]1Cc2cc(I)c(OCc3ccc(Cl)cc3Cl)c(I)c2CN1C(=O)CCc1ccccc1
17,28,O=C(COc1c(I)cc2c(c1I)CN(C(=O)/C=C/c1ccc(Cl)cc1Cl)[C@H](C(=O)O)C2)OCc1ccccc1
18,100,O=C(O)C1Cc2cc(I)c(OCc3c(Cl)cccc3Cl)c(I)c2CN1C(=O)C1CCCC1 (centres undefined)
19,40,O=C(O)[C@@H]1Cc2cc(I)c(OCc3ccc(Cl)cc3Cl)c(I)c2CN1C(=O)/C=C/c1cccc(Br)c1
20,90,O=C(COc1c(I)cc2c(c1I)CN(C(=O)/C(F)=C/c1ccccc1)[C@H](C(=O)O)C2)OCc1ccccc1
21,55,O=C(O)[C@@H]1Cc2cc(I)c(OCc3ccc(C(F)(F)F)cc3)c(I)c2CN1C(=O)/C=C/c1ccc([N+](=O)[O-])cc1

# Target: T2, M-phase inducer phosphatase 2 (Homo sapiens) (UniProt P30305)
# T2 sequence (whole entry): T1 sequence (P30305 whole entry)
# Experiment: Inhibitory activity against Cell division cycle 25B at 100 uM
row,inhibition [%],SMILES
1,12,C/C(=C\c1ccccc1)C(=O)N1Cc2c(cc(I)c(OCCCCl)c2I)C[C@H]1C(=O)O
2,28,COc1cccc(COc2c(I)cc3c(c2I)CN(C(=O)/C=C/c2ccccc2C(F)(F)F)[C@H](C(=O)O)C3)c1
3,32,O=C(O)[C@@H]1Cc2cc(I)c(OCc3ccc(Cl)cc3Cl)c(I)c2CN1C(=O)/C=C/c1ccccc1F
4,25,COc1cccc(COc2c(I)cc3c(c2I)CN(C(=O)/C=C/c2cc(OC)c(OC)c(OC)c2)[C@H](C(=O)O)C3)c1
